Where “and” joins values, the source holds several entries; their conditions need not be identical. Equal entries are not always repeated.
Legend:
Conditions in all cases: incubation time: 72 h
[1] = tested on: HDQ-P1; assay: normalised viability (% of control), CellTiter-Blue; higher = more viable cells (about 100 = DMSO control)
Procedure: (§1)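 DSRT, CellTiter-Blue viability, 72 h incubation. Signal is normalised to DMSO and benzethonium chloride controls. Value is the normalised response at dose 3.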

[2] = tested on: Hs578T; assay: as above
Procedure: as §1

[3] = tested on: DU-4475; assay: as above
Procedure: as §1

[4] = tested on: BT-474; assay: as above
Procedure: as §1

[5] = tested on: MDA-MB-468; assay: as above
Procedure: as §1

[6] = tested on: CAL-51; assay: as above
Procedure: as §1

[7] = tested on: CAL-85-1; assay: as above
Procedure: as §1

[8] = tested on: CAL-148; assay: as above
Procedure: as §1

[9] = tested on: CAL-120; assay: as above
Procedure: as §1

[10] = tested on: MDA-MB-453; assay: as above
Procedure: as §1

[11] = tested on: MFM-223; assay: as above
Procedure: as §1

[12] = tested on: HCC1143; assay: as above
Procedure: as §1

[13] = tested on: MDA-MB-231; assay: as above
Procedure: as §1

[14] = tested on: HDQ-P1; assay: normalised response (% of control), CellTox Green; higher = less cell death (100 = DMSO, 0 = benzethonium chloride kill control)
Method in brief: (§2)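 For each plate, 0.1 % DMSO was set to 100 and a positive kill control to 0. Breast cancer cell lines (20 µl suspension) were seeded into 384-well plates already holding compound at 5 concentrations in 10-fold steps over a 10,000-fold range chosen per compound, and incubated for 72 h. CellTox Green fluorescence at 485/520 nm was read before CellTiter-Glo luminescence, which followed 10 min at room temperature. Each value is the normalised signal at one concentration.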

[15] = tested on: Hs578T; assay: as above
Method in brief: as §2

[16] = tested on: DU-4475; assay: as above
Method in brief: as §2

[17] = tested on: BT-474; assay: as above
Method in brief: as §2

[18] = tested on: HCC1599; assay: as above
Method in brief: as §2

[19] = tested on: MDA-MB-468; assay: as above
Method in brief: as §2

[20] = tested on: CAL-51; assay: as above
Method in brief: as §2

[21] = tested on: MCF-10A; assay: as above
Method in brief: as §2

[22] = tested on: HCC1937; assay: as above
Method in brief: as §2

[23] = tested on: CAL-85-1; assay: as above
Method in brief: as §2

[24] = tested on: CAL-148; assay: as above
Method in brief: as §2

[25] = tested on: MDA-MB-436; assay: as above
Method in brief: as §2

[26] = tested on: BT-549; assay: as above
Method in brief: as §2

[27] = tested on: CAL-120; assay: as above
Method in brief: as §2

[28] = tested on: MDA-MB-453; assay: as above
Method in brief: as §2

[29] = tested on: MFM-223; assay: as above
Method in brief: as §2

[30] = tested on: HCC1143; assay: as above
Method in brief: as §2

[31] = tested on: MDA-MB-231; assay: as above
Method in brief: as §2

Compound	normalised viability ([1]; 10 nM) [%]	normalised viability ([2]; 100 nM) [%]	normalised viability ([3]; 10 nM) [%]	normalised viability ([4]; 100 nM) [%]	normalised viability ([5]; 100 nM) [%]	normalised viability ([6]; 10 nM) [%]	normalised viability ([7]; 10 nM) [%]	normalised viability ([8]; 10 nM) [%]	normalised viability ([9]; 100 nM) [%]	normalised viability ([10]; 10 nM) [%]	normalised viability ([11]; 100 nM) [%]	normalised viability ([12]; 100 nM) [%]	normalised viability ([13]; 100 nM) [%]	other results
Cn1cc(C2=Nc3cc(NC(=O)C(N)C4CCCCC4)cc4c3C2=CNNC4=O)cn1 (configuration not stated)	98.4	87.3	108	108	106	98.2	81.8	93.1	89.9	85.9	69.2	101	83.3	–
CC(=O)O[C@@]12CO[C@@H]1C[C@H](O)[C@@]1(C)C(=O)[C@H](O)C3=C(C)[C@@H](OC(=O)[C@H](O)[C@@H](NC(=O)OC(C)(C)C)c4ccccc4)C[C@@](O)([C@@H](OC(=O)c4ccccc4)[C@H]21)C3(C)C [Docetaxel]	–	–	–	–	–	–	–	–	–	–	–	–	–	normalised viability ([1]; 1 nM): 78.7% and 71.2%; normalised viability ([2]; 10 nM): 13.1% and 18.8%; normalised viability ([3]; 1 nM): 86% and 95.2%; normalised viability ([4]; 10 nM): 49.9% and 46.2%; normalised viability ([5]; 10 nM): 50% and 41.6%; normalised viability ([6]; 1 nM): 101% and 90.4%; normalised viability ([7]; 1 nM): 88.3% and 86.5%; normalised viability ([8]; 1 nM): 99.2% and 81.9%; normalised viability ([9]; 10 nM): 32.1% and 30.1%; normalised viability ([10]; 1 nM): 85.9% and 66.5%; normalised viability ([11]; 10 nM): 59.6% and 53.8%; normalised viability ([12]; 10 nM): 51.7% and 35.2%; normalised viability ([13]; 10 nM): 34.8% and 32.6%
CC(=O)c1c(C)c2cnc(Nc3ccc(N4CCNCC4)cn3)nc2n(C2CCCC2)c1=O	108	66.3	107	95.7	105	107	102	91.3	73.8	104	88.1	82.3	88.5	–
Oc1ncnc2[nH]ncc12 [Allopurinol]	106	94	104	106	105	90	102	108	107	110	91.2	113	109	–
C[C@]1(O)C[C@@H](c2nc(-c3ccc4ccc(-c5ccccc5)nc4c3)c3c(N)nccn32)C1 [OSI-906]	76	74.8	94.1	110	98.6	97.4	104	101	90	86.6	95.5	105	83.8	–
COc1cc(F)c(F)c(Nc2ccc(I)cc2F)c1NS(=O)(=O)C1(C[C@H](O)CO)CC1 [RDEA119]	74.8	76	86	98.7	86.1	91.2	97.3	93.6	93.7	78.3	85	90.8	45	–
O=C1CN2Cc3c(ccc(Cl)c3Cl)N=C2N1 [Anagrelide]	114	88	98.6	122	95.2	98.7	91.6	97	85.6	109	93	84.8	99.2	–
Cn1cnc2c(F)c(Nc3ccc(Br)cc3Cl)c(C(=O)NOCCO)cc21 [Selumetinib]	116	68.4	93.8	94.5	92.5	113	98.6	91.6	82.8	108	87.6	63.9	61.5	–
CC1=C2C[C@H]3[C@@H](CC=C4C[C@@H](O)CC[C@@]43C)[C@@H]2CC[C@]12O[C@@H]1C[C@H](C)CN[C@H]1[C@H]2C [Cyclopamine]	120	84.1	107	124	94.4	114	109	113	88.2	123	103	116	84.9	–
COc1cc2c(cc1O)CC[C@@H]1[C@@H]2CC[C@]2(C)[C@@H](O)CC[C@@H]12 [2-methoxyestradiol]	98.8	103	106	121	102	118	101	93.3	87.9	95.3	108	99.8	94.3	–
Cn1cc(C2=Nc3cc(NC(=O)C(N)C4CCCCC4)cc4c3C2=CNNC4=O)cn1 (configuration not stated) (10000 nM)	–	–	–	–	–	–	–	–	–	–	–	–	–	normalised response [14]: -67.6%; normalised response [15]: 84.6%; normalised response [16]: 83.1%; normalised response [17]: 97.1%; normalised response [18]: 82.4%; normalised response [19]: 13.5%; normalised response [20]: -9.5%; normalised response [21]: 31.3%; normalised response [22]: 95.9%; normalised response [23]: 59.8%; normalised response [24]: 58.5%; normalised response [25]: 92.7%; normalised response [26]: 39.3%; normalised response [27]: 89.9%; normalised response [28]: 41.1%; normalised response [29]: 10.9%; normalised response [30]: 115%; normalised response [31]: 54.2%
Cc1sc2c(c1C)C(c1ccc(Cl)cc1)=N[C@@H](CC(=O)OC(C)(C)C)c1nnc(C)n1-2 [(+)JQ1] (10000 nM)	–	–	–	–	–	–	–	–	–	–	–	–	–	normalised response [14]: 87.6%; normalised response [15]: 100%; normalised response [16]: 81.4%; normalised response [17]: 92.8%; normalised response [18]: 87.9%; normalised response [19]: -39.7%; normalised response [20]: 14.5%; normalised response [21]: 101%; normalised response [22]: 68.2%; normalised response [23]: 24%; normalised response [24]: 50.8%; normalised response [25]: 72.9%; normalised response [26]: 66.8%; normalised response [27]: 91.3%; normalised response [28]: 102%; normalised response [29]: 97.8%; normalised response [30]: 123%; normalised response [31]: 62.5%
O=NN(CCCl)C(=O)NCCCl [Carmustine]	105	96.3	108	111	123	105	95	91.5	91.3	109	83.8	91.8	90.8	–
Cc1sc2c(c1C)C(c1ccc(Cl)cc1)=N[C@@H](CC(=O)OC(C)(C)C)c1nnc(C)n1-2 [(+)JQ1]	98.4	72.6	88.3	110	108	98.5	101	94.7	79.1	108	85.1	92.2	95.9	–
CC1(C)CNc2cc(NC(=O)c3cccnc3NCc3ccncc3)ccc21 [Motesanib]	88.1	90.8	90.4	87.7	113	111	91.4	82.5	71.9	82.7	80.2	79.1	79.2	–
CC[C@@H]1C(=O)OC[C@@H]1Cc1cncn1C [Pilocarpine]	–	–	–	–	–	–	–	–	–	–	–	–	–	normalised viability ([1]; 40 nM): 108%; normalised viability ([2]; 400 nM): 110%; normalised viability ([3]; 40 nM): 108%; normalised viability ([4]; 400 nM): 116%; normalised viability ([5]; 400 nM): 99.6%; normalised viability ([6]; 40 nM): 102%; normalised viability ([7]; 40 nM): 98%; normalised viability ([8]; 40 nM): 97.4%; normalised viability ([9]; 400 nM): 107%; normalised viability ([10]; 40 nM): 102%; normalised viability ([11]; 400 nM): 92.8%; normalised viability ([12]; 400 nM): 90.1%; normalised viability ([13]; 400 nM): 93.3%
Cc1sc2c(c1C)C(c1ccc(Cl)cc1)=N[C@@H](CC(=O)OC(C)(C)C)c1nnc(C)n1-2 [(+)JQ1] (1000 nM)	–	–	–	–	–	–	–	–	–	–	–	–	–	normalised response [14]: 83.5%; normalised response [15]: 98.9%; normalised response [16]: 88.2%; normalised response [17]: 94.4%; normalised response [18]: 95.5%; normalised response [19]: 85.6%; normalised response [20]: 90.6%; normalised response [21]: 108%; normalised response [22]: 59.3%; normalised response [23]: 64.5%; normalised response [24]: 67.3%; normalised response [25]: 66.8%; normalised response [26]: 97.4%; normalised response [27]: 87.5%; normalised response [28]: 104%; normalised response [29]: 98.1%; normalised response [30]: -3.05%; normalised response [31]: 131%
CC1=C2C[C@H]3[C@@H](CC=C4C[C@@H](O)CC[C@@]43C)[C@@H]2CC[C@]12O[C@@H]1C[C@H](C)CN[C@H]1[C@H]2C [Cyclopamine] (1000 nM)	–	–	–	–	–	–	–	–	–	–	–	–	–	normalised response [14]: 96.9%; normalised response [15]: 104%; normalised response [16]: 101%; normalised response [17]: 101%; normalised response [18]: 104%; normalised response [19]: 78.1%; normalised response [20]: 95.5%; normalised response [21]: 108%; normalised response [22]: 70%; normalised response [23]: 101%; normalised response [24]: 95.1%; normalised response [25]: 99.3%; normalised response [26]: 108%; normalised response [27]: 101%; normalised response [28]: 103%; normalised response [29]: 75.1%; normalised response [30]: 100%; normalised response [31]: 119%
CC(=O)O[C@@]12CO[C@@H]1C[C@H](O)[C@@]1(C)C(=O)[C@H](O)C3=C(C)[C@@H](OC(=O)[C@H](O)[C@@H](NC(=O)OC(C)(C)C)c4ccccc4)C[C@@](O)([C@@H](OC(=O)c4ccccc4)[C@H]21)C3(C)C [Docetaxel] (100 nM)	–	–	–	–	–	–	–	–	–	–	–	–	–	normalised response [14]: 75.8%; normalised response [15]: 49.4%; normalised response [16]: 95.2%; normalised response [17]: 57.1%; normalised response [18]: 82.8%; normalised response [19]: 145%; normalised response [20]: 16.6%; normalised response [21]: 34.9%; normalised response [22]: 102%; normalised response [23]: 19.7%; normalised response [24]: 83.2%; normalised response [25]: 69%; normalised response [26]: 69.3%; normalised response [27]: 86.7%; normalised response [28]: 100%; normalised response [29]: 59.5%; normalised response [30]: 76%; normalised response [31]: -12.5%

— the supplement of paper PMC4862054
